One assay concerns the target MAT2A (Homo sapiens (Human), UniProt P31153). Nature of the assay: Biochemical test: inhibition of MAT2A enzyme activity (phosphate detection, OD620). To be noted: MAT2A his-tag; 150 minutes enzymatic reaction. From the text: Experimental principle: MAT2A can catalyze the conversion of L-methionine and ATP into SAM, inorganic phosphate, and inorganic diphosphate. By adding a chromogenic reagent to the enzymatic reaction system, the content of inorganic phosphates in a sample can be quantitatively detected, thereby characterizing the enzymatic activity of MAT2A.
Experimental material: Tris (Life Science #0497); BSA (Sigma #); MAT2A his-tag (BPS #71401-1); 384 well plate (Corning #3765); L-methionine (Admas #1100469); ATP (Sigma #A7699); MgCl2 (Sigma #M8266); KCl (Sigma #7447-40-7); Brij35 (Sigma #B4184); EDTA (Sigma #E1644)
1. 1×Assaybuffer (buffer composition: Tris, KCl, MgCl2, BSA, Brij35, and EDTA; the solvent was ultrapure water) was prepared. MAT2A his-tag enzyme solution (containing 1.3 μL of MAT2A enzyme and 998.7 μL of 1×Assaybuffer per 1000 μL) and substrate mixed solution (containing 5 μL of ATP, 1.3 μL of L-methionine, and 993.7 μL of 1×Assaybuffer per 1000 μL) were prepared using 1×AssayBuffer.
2. Preparation of compound concentration gradient: The test compound was tested with a starting concentration of 10 μM, and 10 equimolar concentrations were set according to a 3-fold dilution. Specifically, firstly, the compound was diluted into 10 different concentrations of series solutions in a 384 well plate (with final detection concentrations of 10, 3.33, 1.11, 0.37, 0.123, 0.041, 0.0137, 0.0046, 0.0015, and 0.0005 μM), and then 250 nL of the above series solutions was transferred to the 384 well reaction plate using an ultrasonic pipetting system Echo550 for later use. 250 nL of 100% DMSO was added into a negative control well and a positive control well, respectively. Double well test.
3. 15 μL of MAT2A his-tag enzyme solution was added into both the compound well and the positive control well; and 15 μL of 1×Assaybuffer was added into the negative control well.
4. The 384 well plate reaction plate was centrifuged at 1000 rpm for 60 seconds, shaken, mixed well, and incubated for 15 minutes. 10 μL of substrate mixed solution was added into each experimental well of the 384 well reaction plate to initiate the reaction.
5. The 384 well reaction plate was centrifuged at 1000 rpm for 60 seconds, shaken, mixed well, and incubated for 150 minutes.
6. 50 μL of enzyme reaction termination solution Biomol was added into all experimental wells of the 384 well reaction plate to terminate the reaction, centrifuged at 1000 rpm for 60 seconds, and incubated for 15 minutes. OD620 was read and data was processed.
Data analysis: the inhibition rate (%) of the compound was calculated and fitted to obtain the IC50 of the tested compound. Calculation method for compound inhibition rate: Compound inhibition rate (%)=(OD620_max−OD620_stample)/(OD620_max−OD620_min)×100, wherein OD620_stample was the absorbance value of the sample well; OD620 min was the absorbance value of the positive control well, indicating the reading of the wells without enzyme activity; and OD620_max was the absorbance value of the negative control well, indicating the reading of the well without compound inhibition.

The test system of another assay is KP-4 cells. Nature of the assay: Human pancreatic cancer KP-4 cell activity inhibition test (CellTiter-Glo). In kind it is cell-based. To be noted: Homo sapiens, 120 h, 5 days. Here is the method: Experimental principle: after co-incubating the MAT2A inhibitor to be tested with KP-4 cells for a period of time, a cell viability measurement method based on ATP content is used to characterize the effect of the tested compound on cell viability.
Experimental material: KP-4 cells (JCRB #JCRB0182); IMDM (Gibco 912440061); fetal bovine serum (EXCELL #FND500); penicillin-streptomycin (Gibco #15140-122); 0.25% Typsin-EDTA (Gibco #252(101-072); DMSO (Sigma #D2650); 96 well plate (Corning #3610); CellTiter-Glo (Promega #G7571)
1. KP-4 cells were cultured in IMDM culture medium containing 10% e fetal bovine serum and 1% penicillin-streptomycin at 37° C. and 5% CO2 in a cell culture incubator. Only cells in logarithmic growth phase were used for subsequent experiments.
2. The cells in logarithmic growth phase were inoculated into a 96 well plate, with a seeding quantity of 500 cells per well, and incubated overnight in a cell culture incubator at 37′C and 5% CO2.
3. The compound was dissolved with DMSO, diluted with culture medium to 10 different concentrations (approximately […]), 3333.3, 1111.1, 370, 123, 41.2, 13.7, 4.6, 1.5, and 0.5 nM) before adding it to the cell plate, and cultured at 37° C. and 5% CO2 for 5 days.
4. CellTiter-Glo reagent was added, and an enzyme-linked immunosorbent assay reader was used to detect cell viability.
Data analysis: the inhibition rate (%) of the compound was calculated and fitted to obtain the IC50 of the tested compound. Calculation method for compound inhibition rate: Compound inhibition rate (%)=(Signal_max−Signal_sample)/(Signal_max−Signal_min)×100, wherein Signal_sample was the sample well reading, indicating the cell activity of the compound inhibition well; Signal_min was the positive control well reading, indicating the background activity without cells; and Signal_max was the negative control well reading, indicating the cell activity of the well without compound inhibition.

MAT2A, sequence (P31153 whole entry): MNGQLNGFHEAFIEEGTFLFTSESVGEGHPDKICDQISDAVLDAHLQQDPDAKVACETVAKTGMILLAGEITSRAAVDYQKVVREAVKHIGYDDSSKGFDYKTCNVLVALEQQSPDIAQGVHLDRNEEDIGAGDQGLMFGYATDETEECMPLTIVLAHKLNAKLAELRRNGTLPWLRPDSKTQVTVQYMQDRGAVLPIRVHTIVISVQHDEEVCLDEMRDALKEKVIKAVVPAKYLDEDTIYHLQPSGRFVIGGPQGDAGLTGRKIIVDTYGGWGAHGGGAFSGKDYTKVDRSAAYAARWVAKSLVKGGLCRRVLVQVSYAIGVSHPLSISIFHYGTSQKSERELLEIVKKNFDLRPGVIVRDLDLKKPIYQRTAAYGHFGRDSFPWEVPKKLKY

Molecule `CCOc1c(-c2ccc(C)nc2)c(=O)n(-c2ccc3nn(C)cc3c2)c2[nH]ncc12` [Compound 48] registered an IC50 against MAT2A of 16.3 nM. In other words, the double-digit nanomolar range.

In the case of `CCOc1c(-c2ccc(OC(F)F)cc2)c(=O)n(-c2ccc3nn(C)cc3c2)c2c1cnn2C` [Compound 31], the IC50 at MAT2A amounted to 120 nM. This IC50 lies about 7.4-fold higher than the previous one.

For `CCOc1c(-c2ccc(OC(F)F)cc2)c(=O)n(-c2cnc3nn(C)cc3c2)c2[nH]ncc12` [Compound 40], the IC50 against MAT2A worked out at 55.8 nM.

Consider `Cn1cc2cc(-n3c(=O)c(-c4ccc(Cl)cc4)c(OCC(F)(F)F)c4cn[nH]c43)ccc2n1` [Compound 28], for which the IC50 worked out at 15 nM against MAT2A and 5.2 nM in the assay with KP-4 cells.

In the case of `CCN(C)c1c(-c2ccc(Cl)cc2)c(=O)n(-c2ccc3nn(C)cc3c2)c2[nH]ncc12` [Compound 64], the IC50 at MAT2A was determined as 18.5 nM.

Turning to `Cn1cc2cc(-n3c(=O)c(-c4ccc(C(F)(F)F)nc4)c(OCC4CC4)c4cn[nH]c43)ccc2n1` [Compound 104], the IC50 at MAT2A was 15.7 nM; in the assay on KP-4 cells, 8.3 nM.

For the molecule `CCOc1c(-c2ccc(OC(F)F)cc2)c(=O)n(-c2ccc3nccn3c2)c2[nH]ncc12` [Compound 24], the IC50 in the assay with KP-4 cells was found to be 256 nM.

Turning to `CCNc1c(-c2ccc(Cl)cc2)c(=O)n(-c2ccc3nn(C)cc3n2)c2[nH]ncc12` [Compound 105], the IC50 amounted to 19.6 nM at MAT2A and 59 nM in the assay on KP-4 cells.

For the molecule `CCOc1c(-c2ccc(OC)nc2)c(=O)n(-c2ccc3nn(C)cc3c2)c2[nH]ncc12` [Compound 126], the IC50 against MAT2A was 12.6 nM; with KP-4 cells, 38 nM.

Take `CCOc1c(-c2ccc(OC(F)F)cc2)c(=O)n(-c2ccc3ncnn3c2)c2[nH]ncc12` [Compound 25]: inhibition in the assay with KP-4 cells was half-maximal at 274 nM (IC50).

In the case of `CCOc1c(-c2ccc(Cl)cc2)c(=O)n(-c2ccc3nn(C)cc3c2)c2cnn(C)c12` [Compound 100], at MAT2A, the IC50 was 62.4 nM.

Consider `CCOc1c(C2CCCCC2)c(=O)n(-c2ccc3nn(C)cc3c2)c2[nH]ncc12` [Compound 61], for which the midpoint of inhibition against MAT2A, the IC50, lay at 14.2 nM.

In turn, `CCOc1c(-c2ccc(Cl)cc2)c(=O)n(-c2ccn3nc(C)cc3n2)c2[nH]ncc12` [Compound 116] registered an IC50 on MAT2A of 335 nM. Against the preceding molecule, the IC50 is about 24-fold higher.

At MAT2A, `CCNc1c(-c2ccc(OC)cc2)c(=O)n(-c2ccc(C#N)cc2)c2[nH]ncc12` [Compound 6] registered an IC50 of 708 nM.

In the case of `CCOc1c(-c2ccc(Cl)cc2)c(=O)n(-c2ccc3nn(C)cc3n2)c2c1cnn2C` [Compound 121], on MAT2A, the IC50 stood at 1120 nM.

Regarding `CCOc1c(-c2ccc(Cl)cc2)c(=O)n(-c2ccc3c(cnn3CCN(C)C)c2)c2[nH]ncc12` [Compound 131], the IC50 against MAT2A came to 36.2 nM.

On MAT2A, `CCOc1c(-c2ccc(Cl)cc2)c(=O)n(-c2ccc3nn(C)nc3c2)c2nn(C)cc12` [Compound 136] registered an IC50 of 17.9 nM.

`Cn1cnc2ccc(-n3c(=O)c(-c4ccc(OC(F)F)cc4)c(OCC4CC4)c4cn[nH]c43)cc21` [Compound 32] showed a concentration for half-maximal inhibition (IC50) against MAT2A of 14.6 nM.

`CCOc1c(-c2ccc(C)nc2)c(=O)n(-c2ccc3nn(CC)cc3c2)c2[nH]ncc12` [Compound 101] displayed an IC50 at MAT2A of 17.4 nM. The IC50 values of the last two molecules are within 1.5-fold of each other.

As for `CCOc1c(-c2ccc(Cl)cc2)c(=O)n(-c2ccn3nccc3c2)c2[nH]ncc12` [Compound 114], the IC50 against MAT2A came out at 67.3 nM.

At MAT2A, `CCOc1c(-c2ccc(C(F)(F)F)nc2)c(=O)n(-c2ccc3nn(C)cc3n2)c2[nH]ncc12` [Compound 87] yielded an IC50 of 28.3 nM. Against the preceding molecule, the IC50 is about 2.4-fold lower.

As for `CCNc1c(-c2ccc(Cl)cc2)c(=O)n(-c2ccc3c(c2)ncn3C)c2[nH]ncc12` [Compound 16], the IC50 against MAT2A was > 10000 nM.

For the molecule `CCOc1c(-c2ccc(Cl)cc2)c(=O)n(-c2ccc3nn(C)cc3c2)c2cn(C)nc12` [Compound 56], 24.4 nM corresponded to half-maximal inhibition against MAT2A (IC50).

In the case of `CCSc1c(-c2ccc(Cl)cc2)c(=O)n(-c2ccc3nn(C)cc3c2)c2[nH]ncc12` [Compound 130], the IC50 at MAT2A stood at 11.2 nM.

`CCOc1c(-c2ccc(Cl)cc2)c(=O)n(-c2ccc3nn(C)cc3c2)c2[nH]cnc12` [Compound 67] registered an IC50 on MAT2A of 17.8 nM.

For `Cn1cc2cc(-n3c(=O)c(-c4ccc(Cl)cc4)c(OCCO)c4cn[nH]c43)ccc2n1` [Compound 59], at MAT2A, the 50% inhibitory concentration (IC50) was determined as 20.7 nM.

`CCOc1c(-c2ccc(Cl)cc2)c(=O)n(-c2ccc3nnn(C)c3c2)c2nn(C)cc12` [Compound 140] displayed an IC50 against MAT2A of 13 nM.

At MAT2A, `CCOc1c(-c2ccc(=O)[nH]c2)c(=O)n(-c2ccc3nn(C)cc3c2)c2[nH]ncc12` [Compound 125] returned an IC50 of 45.3 nM.

`CCOc1c(-c2ccc(C)nc2)c(=O)n(-c2ccc3nn(C)cc3n2)c2[nH]ncc12` [Compound 86]: the IC50 against MAT2A was 20.3 nM.

The molecule `COCCOc1c(-c2ccc(Cl)cc2)c(=O)n(-c2ccc3nn(C)cc3c2)c2[nH]ncc12` [Compound 60] registered an IC50 on MAT2A of 14.2 nM.

Regarding `[2H]C([2H])([2H])C([2H])([2H])Oc1c(-c2ccc(Cl)cc2)c(=O)n(-c2ccc3nn(C)cc3c2)c2[nH]ncc12` [Compound 142], the IC50 against MAT2A was 10.3 nM.

Molecule `CCOc1c(-c2ccc(Cl)cc2)c(=O)n(-c2ccc3ncn(C4CNC4)c3c2)c2[nH]ncc12` [Compound 35] displayed an IC50 on MAT2A of 60.8 nM.

`CCOc1c(-c2ccc(Cl)cc2)c(=O)n(-c2ccc3nn(C)nc3n2)c2nn(C)cc12` [Compound 138] displayed an IC50 against MAT2A of 50.7 nM.

On to `Cc1ccc(-c2c(OCC(F)(F)F)c3cn[nH]c3n(-c3ccc4nn(C)cc4n3)c2=O)cn1` [Compound 89], for which the IC50 against MAT2A was 16 nM.

Molecule `CCOc1c(-c2ccc(C#N)cc2)c(=O)n(-c2ccc3nn(C)cc3c2)c2[nH]ncc12` [Compound 65] registered an IC50 at MAT2A of 16 nM.

`CCCc1c(-c2ccc(Cl)cc2)c(=O)n(-c2ccc3nn(C)cc3c2)c2[nH]ncc12` [Compound 112] returned an IC50 against MAT2A of 18.3 nM.

Consider `CCOc1c(-c2ccc(OC(F)F)cc2)c(=O)n(-c2ccc3nn(CCOC)cc3c2)c2[nH]ncc12` [Compound 21], for which 18.9 nM corresponded to half-maximal inhibition with KP-4 cells (IC50).

As to `CCOc1c(-c2ccc(Cl)cc2)c(=O)n(-c2ccc3nn(C)cc3c2)c2nn(CCO)cc12` [Compound 122], half-maximal inhibition at MAT2A (IC50) required 27.7 nM.

For the molecule `CCOc1c(-c2ccc(C)cc2)c(=O)n(-c2ccc3nn(C)cc3n2)c2[nH]ncc12` [Compound 133], it took 27.4 nM to reach half-maximal inhibition on MAT2A (IC50).

`CCOc1c(-c2ccc(Cl)cc2)c(=O)n(-c2ccc3ncn(CC)c3c2)c2[nH]ncc12` [Compound 34] gave a half-maximal inhibitory concentration (IC50) against MAT2A of 22.1 nM.

`CCOc1c(-c2cccc(OC)c2)c(=O)n(-c2ccc3nn(C)cc3c2)c2[nH]ncc12` [Compound 18] displayed an IC50 at MAT2A of 22.9 nM.

Turning to `CCOc1c(-c2ccc(OC(F)F)cc2)c(=O)n(-c2ccn3nccc3c2)c2[nH]ncc12` [Compound 23], the IC50 in the assay with KP-4 cells was determined as 89.2 nM.

With `CCOc1c(-c2ccc(Cl)cc2)c(=O)n(-c2ccc3c(cnn3CCN(C)C)n2)c2[nH]ncc12` [Compound 139], on MAT2A, the IC50 worked out at 376 nM.

`Cn1cc2cc(-n3c(=O)c(-c4ccc(OC(F)F)cc4)c(OCC4CC4)c4cn[nH]c43)ccc2n1` [Compound 39] showed an IC50 against MAT2A of 15 nM.

The values are drawn from patent US20260014125A1, “BICYCLIC-TYPE MAT2A INHIBITOR AND USE THEREOF” (HAIHE BIOPHARMA CO., LTD., priority 2022, published 2026).
